# In article PMC9351465, “Mechanism-based heparanase inhibitors reduce cancer metastasis in vivo” (Proceedings of the National Academy of Sciences of the …, 2022):
# Where “and” joins values, the source holds several entries; their conditions need not be identical. Equal entries are not always repeated. Entries after “also recorded” stand apart in the source; their conditions may differ.
# Legend:
# HPSE [1] = molecular target: T1, HPSE (Homo sapiens, UniProt Q9Y251); experiment: H35SPG basement membrane (ECM) digest by recombinant HPSE; type: biochemical; conditions: for inhibition of recombinant HPSE-mediated H35SPG cleavage: 200 ng HPSE, pH 6.0, 37°C, 5 h
# T1 sequence (Q9Y251 158-543 limits assumed): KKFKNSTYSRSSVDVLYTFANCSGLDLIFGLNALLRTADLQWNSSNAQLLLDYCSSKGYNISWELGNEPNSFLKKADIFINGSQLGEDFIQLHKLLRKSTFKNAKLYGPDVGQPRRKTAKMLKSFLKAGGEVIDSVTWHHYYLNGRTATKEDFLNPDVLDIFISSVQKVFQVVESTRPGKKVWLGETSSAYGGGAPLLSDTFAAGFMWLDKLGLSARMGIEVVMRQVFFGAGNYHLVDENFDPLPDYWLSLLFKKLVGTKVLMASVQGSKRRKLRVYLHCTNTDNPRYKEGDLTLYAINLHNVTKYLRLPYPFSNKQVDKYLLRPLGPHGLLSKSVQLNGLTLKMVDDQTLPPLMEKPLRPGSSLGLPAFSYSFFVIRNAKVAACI
# T1 sequence (Q9Y251 36-109 limits assumed): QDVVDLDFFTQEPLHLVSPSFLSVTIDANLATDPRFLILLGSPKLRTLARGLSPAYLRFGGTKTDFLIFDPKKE
# From the text: Finally, we assessed our inhibitors against HPSE-mediated degradation of bona fide HSPGs in an ECM environment. Cultured bovine corneal endothelial cells secrete a subendothelial basement membrane material rich in proteoglycans, which can be radiolabeled by growth in the presence of ^35SO4^2− ([50]). Solubilized H^35S chains released from H^35SPGs by HPSE digestion can be resolved chromatographically, with HPSE inhibition leading to a corresponding loss of signal. […] We also tested inhibition of endogenous cellular HPSE using this assay format. […]
# ECM coated 35 mm culture dishes containing 35S labelled HS were prepared as previously described (10). Briefly, bovine corneal endothelial cells were plated at an initial density of 2x10^5 cells/ml, with 4% dextran T-40 (Sigma) included in the growth medium. Na235SO4 (25 µCi/ml) was added to the incubation medium on days 2 and 5 after seeding. On day 12, subendothelial ECM is exposed by dissolving the cells with PBS containing 0.5% Triton X-100 and 20 mM NH4OH, followed by four washes with PBS.
# (§1) For HS-degradation assays, ECM coated dishes were incubated with 200 ng recombinant HPSE in 1 mL reaction mixture (10 mM buffer Phosphate-Citrate pH 6.0, 50 mM NaCl, 1 mM DTT, 1 mM CaCl2) containing HPSE inhibitors or DMSO control. Plates were incubated at 37°C for 5 h, then assay medium collected and applied to a 0.9×30 cm Sepharose 6B size exclusion column. The Sepharose 6B column was eluted with PBS, and 35S radioactivity of 0.2 mL fractions quantitated using a liquid scintillation analyzer (Packard BioScience) (11). […]
# Matrigel and […]
# non-migrating cells in the upper side of the Boyden filter were removed by swabbing, then invading cells on the bottom side of the transwell filter imaged for analysis. […]
# B16 melanoma - Twenty minutes before tumor cell inoculation, C57BL/J6 mice (n=5) were injected intraperitoneally with vehicle alone (PBS), compound 2 (300 nmol/mouse), or SST0001 (150 µg/mouse). Mice were subsequently intravenously inoculated with 1.5x105
# HPSE [2] = molecular target: T1, HPSE; experiment: colorimetric fondaparinux cleavage assay; type: biochemical
# Description: We next investigated the ability of our inhibitors to abrogate HPSE processing of its native oligosaccharide substrates, using a colorimetric assay that detects cleavage of the synthetic HS pentasaccharide fondaparinux ([49]). […]
# Fondaparinux cleavage was performed essentially as previously described (9). Briefly, assays were carried out in 96 well plates (Nunc) pretreated with 4% BSA in TBS-T (20 mM Tris pH 7.4, […]
# 100 µL reactions were set up in 40 mM NaOAc pH 5.0 buffer, containing final concentrations of 200 ng/mL HPSE, 100 µM Fondaparinux (Arixtra) and specified concentrations of inhibitors.
# Reactions were incubated at 37°C for 18 h, then quenched with 100 µL 0.1 M NaOH supplemented with 1.7 mM WST-1 tetrazolium salt, and incubated at 60°C for 1 h. Absorbance at 584 nm was read using an ELISA plate reader (BIO-TEK Instruments). All reactions were carried out in technical duplicate. Data were plotted and analyzed using Sigmaplot (Systat). […]
# HPSE [3] = molecular target: T1, HPSE; experiment: competitive activity-based protein profiling (cABPP) with ABP 7, recombinant HPSE; conditions: recombinant HPSE 20 nM, 1 h preincubation at 37°C, then 100 nM ABP 7, pH 5.5
# GUSB = molecular target: T2, GUSB (Homo sapiens, UniProt P08236); experiment: cABPP of human platelet lysates, GUSB band; conditions: human platelet lysates containing both HPSE and GUSB
# T2 sequence (P08236 23-651): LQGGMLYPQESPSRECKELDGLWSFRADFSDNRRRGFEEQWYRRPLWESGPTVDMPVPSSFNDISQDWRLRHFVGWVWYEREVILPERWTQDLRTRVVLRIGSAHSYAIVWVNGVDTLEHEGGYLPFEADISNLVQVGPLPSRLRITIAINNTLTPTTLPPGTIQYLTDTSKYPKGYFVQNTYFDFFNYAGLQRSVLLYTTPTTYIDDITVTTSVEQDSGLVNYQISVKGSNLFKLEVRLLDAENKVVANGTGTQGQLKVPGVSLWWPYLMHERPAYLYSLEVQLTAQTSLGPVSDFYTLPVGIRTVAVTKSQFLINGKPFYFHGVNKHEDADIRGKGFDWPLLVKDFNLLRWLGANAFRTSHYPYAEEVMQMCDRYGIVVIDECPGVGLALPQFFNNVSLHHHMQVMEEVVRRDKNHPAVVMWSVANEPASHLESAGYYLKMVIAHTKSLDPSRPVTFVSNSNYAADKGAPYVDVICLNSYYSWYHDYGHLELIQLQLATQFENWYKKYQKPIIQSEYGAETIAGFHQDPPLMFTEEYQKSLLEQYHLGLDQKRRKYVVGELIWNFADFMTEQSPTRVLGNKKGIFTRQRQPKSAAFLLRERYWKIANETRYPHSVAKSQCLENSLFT
# [4] = molecular target: exo-β-glucuronidase EcGUSB (Escherichia coli, UniProt P05804); experiment: cABPP with ABP 7, recombinant EcGUSB; conditions: competition with ABP 7
# U87 glioblastoma cells = experiment: Matrigel invasion assay; type: cell-based, human; conditions: 20 µM inhibitor, 4 h
# Description: Preliminary in cellulo evaluations of our inhibitors’ effects on cancer aggression were conducted using a Matrigel invasion assay, which measures the ability of cells to migrate through transwell inserts coated with the ECM material Matrigel. Matrigel invasion by cells requires a broad complement of proteases and glycosidases, thereby mimicking some aspects of metastasis in vivo ([51]).
# as §1
# Cells in the upper chamber were separated by Matrigel from a lower chamber containing 600 µL DMEM, supplemented with 10% FBS. […] 10 randomly selected microscopic fields were recorded, and cell invasion calculated using ImageJ, by quantitating the percentage of the field stained by crystal violet. […]
# human platelet HPSE = molecular target: T3, human platelet HPSE (Homo sapiens, UniProt Q9Y251); experiment: cABPP of human platelet lysates, HPSE band
# T3 sequence (Q9Y251 158-543 limits assumed): T1 sequence (Q9Y251 158-543 limits assumed)
# T3 sequence (Q9Y251 36-109 limits assumed): T1 sequence (Q9Y251 36-109 limits assumed)
# BpHep and AcGH79 = type: biochemical, Burkholderia pseudomallei; Acidobacterium capsulatum; conditions: recombinant enzymes, competition with ABP 7
smiles,measurement,setting,value
"O=C(O)[C@@H]1[C@@H](O)[C@H](O)[C@@H](O)[C@@H]2O[C@@H]21 [compound 1, glucuronyl-cyclophellitol]",inhibition of recombinant HPSE-mediated H35SPG cleavage,HPSE [1],no HPSE inhibition was observed
same,"HPSE inhibition, fondaparinux cleavage",HPSE [2]; at 50 μM,Little HPSE inhibition
same,HPSE inhibition (cABPP),HPSE [3],ineffective HPSE inhibitor up to 10 μM
same,selectivity of GUSB inhibition in platelet lysates,GUSB,exclusively inhibited GUSB
same,EcGUSB inhibition (cABPP),[4],inhibited
CC(=O)N[C@H]1[C@@H](O[C@H]2[C@H](O)[C@@H](O)[C@@H]3O[C@@H]3[C@@H]2C(=O)O)O[C@H](COS(=O)(=O)O)[C@@H](O)[C@@H]1O [compound 3],Matrigel invasion (% field stained),U87 glioblastoma cells,significantly reduced Matrigel invasion
same,IC50,"human platelet HPSE; HPSE IC50, human platelet lysates, cABPP, n = 3",~60 nM and 56 nM
same,selectivity of HPSE inhibition in platelet lysates,human platelet HPSE; human platelet lysates containing both HPSE and GUSB,highly selective inhibition of human platelet HPSE
same,inhibition of recombinant HPSE-mediated H35SPG cleavage,HPSE [1],"robust, dose-dependent inhibition"
same,level of inhibition of H35SPG cleavage relative to 4.6 μM 10,HPSE [1]; 1 μM 2 or 3 compared to 4.6 μM 10,comparable levels of inhibition
same,IC50,"HPSE [2]; 200 ng/mL HPSE, 100 µM fondaparinux, pH 5.0, 37°C, 18 h, n = 2, read-out: IC50, HPSE-mediated fondaparinux cleavage",520 nM and ~510 nM
same,HPSE inhibition (cABPP),HPSE [3],nanomolar HPSE inhibition potencies; also recorded: greater potency than 2 and 4
O=C(O)[C@@H]1[C@@H](O[C@H]2O[C@H](CO)[C@@H](O)[C@H](O)[C@H]2O)[C@H](O)[C@@H](O)[C@@H]2O[C@@H]21 [compound 4],HPSE inhibition (cABPP),HPSE [3],nanomolar HPSE inhibition potencies
N[C@H]1[C@@H](O[C@H]2[C@H](O)[C@@H](O)[C@@H]3O[C@@H]3[C@@H]2C(=O)O)O[C@H](CO)[C@@H](O)[C@@H]1O [compound 5],HPSE inhibition (cABPP),HPSE [3],weaker inhibition
same,inhibition of BpHep and AcGH79 (cABPP),BpHep and AcGH79,all compounds apart from 5 showing activity
